From patent US20150289795A1, “METHODS AND KITS FOR THE PROGNOSIS OF COLORECTAL CANCER” (INSTITUCIÓ CATALANA DE RECERCA I ESTUDIS AVANÇATS, priority 2012, published 2015)

Legend:
[1] = test system: colon cancer stem cells derived from a stage IV patient; assay: subcutaneous tumour formation by primary CoCSC-derived cells in mice; format: in vivo; conditions: 2 mg twice a day per os, from three days prior to inoculation until sacrifice; FIG. 12A
Source text: (§1) A. Kaplan Meier curves show tumour free survival over time for mice injected subcutaneously with colon cancer stem cells derived from a stage IV patient, treated or not with a TGF beta inhibitor (LY2157299). Mice received LY2157299 or vehicle from three days prior to inoculation until sacrifice (n=12) B. Bioluminescence over time after intrasplenic inoculation of 5×10^5 colon cancer stem cells derived from a stage IV patient in NSG mice treated as in A. Intensities were normalized to day 0 and arbitrarily set to 100. Values are mean±SEM (*: p<0.05).
All experiments with mouse models were approved by the animal care and use committee of the Barcelona Science Park (CEEA-PCB) and the Catalan Government. Cells were injected subcutaneously in 5 to 6 weeks old Swiss nude or NSG mice, (Jackson Labs), which were followed for the periods described. Tumour appearance was assessed by palpation. Five to six weeks old Balb/c nude or NSG mice (Jackson Labs) were used to perform metastasis experiments by intra-splenic injection (Warren et al., 1995, J. Clin. Invest. 95, 1789-1797) […]

[2] = test system: CoCSC-derived culture (TGFBR2-mutant tumour organoids of a Stage IV CRC patient); assay: in vitro growth of CoCSC-derived tumour organoid culture; format: cell-based, human; conditions: both TGFBR2 alleles inactivated, data not shown
Source text: The purification of Colon Cancer CoCSCs from CRC biopsies is described elsewhere (Merlos-Suarez et al., 2011, Cell Stem Cell 8, 511-524). We isolated CoCSCs from the primary tumour of a Stage IV CRC patient and cultured them as epithelial tumour organoids as described in (Jung et al., 2011; Nat Med 17, 1225-1227; Sato et al., 2011; Gastroenterology 141, 1762-1772). […] When injected in immunodeficient mice, they generated tumours with abundant p-SMAD2+ stromal cells, implying that this primary CoCSCs elicited a TGF-beta response in the tumour microenvironment (data not shown).

[3] = test system: colon cancer stem cells derived from a stage IV patient; assay: liver metastasis after intrasplenic inoculation of CoCSCs, bioluminescence; format: in vivo, NSG mice
Source text: as §1
All experiments with mouse models were approved by the animal care and use committee of the Barcelona Science Park (CEEA-PCB) and the Catalan Government. Cells were injected subcutaneously in 5 to 6 weeks old Swiss nude or NSG mice, (Jackson Labs), which were followed for the periods described. Tumour appearance was assessed by palpation. […]
Mice were anaesthetized, injected retro-orbitally with D-luciferin (Promega) and imaged for luciferase activity as previously described (Minn et al., 2005; J Clin Invest 115, 44-55). Luciferase activity measured immediately after cell injection was used to exclude any mice that were not successfully xenografted and to normalize bioluminescence. […]

[4] = test system: TGF-beta signalling (p-SMAD2); assay: TGF-beta signalling and target gene mRNA in pre-established xenografts; format: in vivo, mice; conditions: tenfold higher dosed treatment for 3 days
Source text: The TGF-beta receptor I kinase antagonist, LY2157299, developed by Eli Lilly (Beight, 2004, Eli Lilly and Co. PCT Int. Appl. In PCT Int. Appl. WO2004048382A1; Bueno et al., 2008; Eur J Cancer 44, 142-150) was synthesized following the procedure described (Mundla, 2007; Eli Lilly and Company. PCT Int. Appl. WO2007018818A1. In, (USA)). TGF-beta receptor type I inhibitor LY2157299 was suspended in a formulation (vehicle) composed of 1% sodium carboxy methylcellulose (NaCMC), 0.4% sodium lauryl sulfate (SLS), 0.05% anti-foam and 0.085% polyvinylpyrrolidone (PVP) in a concentration of 6.67 mg mL^−1. Mice were dosed twice a day with 2 mg in 300 μL (2 mg) per os. starting 3 days before CRC cell lines inoculation. A tenfold higher dosed treatment for 3 days was used to show TGF-beta signalling (p-SMAD2) and target gene mRNA downregulation in pre-established xenografts.

Compound	formation of subcutaneous tumours (tumour free survival) [1]	in vitro growth rates, morphology or organoid forming activity [2]	number of cells that engrafted the liver immediately after inoculation ([3]; kinetics of metastatic colonization, FIG. 12B inset)	formation of liver metastasis by CoCSCs inoculated via the spleen ([3]; same regime, 5×10^5 cells intrasplenic, NSG mice, FIG. 12B)	TGF-beta signalling (p-SMAD2) and target gene mRNA [4]
Cc1cccc(-c2nn3c(c2-c2ccnc4ccc(C(N)=O)cc24)CCC3)n1 [LY2157299, 2-(6-methyl-pyridin-2-yl)-3-[6-amido-quinolin-4-yl)-5,6-dihydro-4H-pyrrolo[1,2-b]pyrazole]	conferred resistance to the formation of subcutaneous tumours	did not modify	reduced the number of cells that engrafted the liver	reduced formation of liver metastasis	downregulation
active TGF-beta: active TGF-beta added to the CoCSC-derived culture	–	did not modify	–	–	–
